Test results from patent US10188706B2, “Plasminogen activator mutants as anti-fibrinolytic agents” (HADASIT MEDICAL RESEARCH SERVICES & DEVELOPMENT LIMITED, priority 2012, dated 2019).
Entries after “also recorded” stand apart in the source; their conditions may differ.

Columns and labels:
[1] = tested on: mice treated with Coumadin and subjected to CHI; test: Closed head injury (CHI) in mice anticoagulated with warfarin (Coumadin); format: in vivo, mouse; settings: for extent of ICH post CHI after anticoagulation: warfarin prior to CHI
Excerpt: (§1) Closed Head Injury (CHI) Model
(§2) Head trauma was induced by using a modified weight-drop device, as previously described (Chen Y. et al. (1996) J. Neurotrauma, 13:557-568). Briefly, after induction of ether anesthesia, a midline longitudinal incision was made, the skin was retracted and the skull was exposed. The left anterior frontal area was identified and a Teflon tipped cone (2-mm diameter) was placed 1 mm lateral to the midline, in the midcoronal plane. The head was held in place manually and a 75-g weight was dropped on the cone from a height of 18 cm, resulting in focal injury to the left hemisphere. After trauma, the mice received supporting oxygenation with 95% 02 for no longer than 2 min and were then returned to their cages. In sham controls only anesthesia and skin incision were carried out.

WT mice subjected to CHI = test: Closed head injury (CHI) model of TBI in WT mice; format: in vivo, mouse; settings: WT mice, IV immediately after or 2 hrs after CHI, Hgb at 2 or 8 hrs, MRI at 24 hrs
Experimental: Eight to twelve weeks old C57 mice obtained from Harlan, Israel. Mice were administered standard laboratory chow and water ad libitum, and kept in controlled temperature and light conditions. Animal experiments were carried out according to the guidelines of the Hebrew University-Institutional Committee for Care and Use of Laboratory Animals, and with the committee's approval.
as §1, §2

[2] = tested on: tPA-/- and uPA-/- mice subjected to CHI; test: Closed head injury (CHI) model in tPA-/- and uPA-/- mice; format: in vivo, mouse; settings: 5 mg/kg each
Excerpt: as §1, §2

trauma patients = settings: early administration of a short course (Ker K. ibid.); cited from earlier work
uPA = molecular target: T1, uPA (Homo sapiens, UniProt P00749); test: Plasminogen activator activity, chromogenic assay without fibrin, activation by uPA; format: biochemical; settings: plasminogen 500 nM, uPA 20 nM; mutants 100 nM or TA 200 nM alone; FIG. 2D
T1 construct: Single-chain urokinase (uPA) was purified, characterized as previously reported; made in house
Experimental: Plasminogen Activator Activity
Plasminogen activator activity was determined by adding tPA (50 nM) or uPA (20 nM), to a reaction mixture containing Glu-plasminogen and the plasmin chromogenic substrate Spectrazyme PL (100 μM) in phosphate-buffered saline (PBS) at 37° C., and the light absorbance at 405 nm was measured continuously over time. The initial velocities of plasmin generation at the different conditions were calculated from the change in the A405 nm over time. The initial velocity of the reaction at each plasminogen concentration was obtained by calculating the change in the rate of A405 over different time intervals and the results were expressed as the change in optical density (ΔOD) per minute, which represents the slope of the initial velocity of plasminogen activation (Higazi A et al., J Biol Chem. (1995), 270(29):17375-80).

[3] = tested on: patients undergoing elective surgery; settings: 53 studies, 3836 participants (Ker K. et al. 2012); cited from earlier work

Molecule: CC(=O)CC(c1ccccc1)c1c(O)c2ccccc2oc1=O (stereo not drawn) [warfarin]
- extent of ICH post CHI after anticoagulation ([1]; WT mice): increased the extent of ICH
- mean INR at the time of trauma ([1]; mice anticoagulated with warfarin prior to CHI): 2.5
- extent of ICH post CHI after anticoagulation ([1]; tPA-/- or uPA-/- mice): had no such effect

Molecule: WT-tPA: wild type tissue plasminogen activator; recombinant tPA from Genentech
- intracerebral hemorrhage (MRI, extravasation of Hgb) post CHI (WT mice subjected to CHI): increased the extent of intracerebral hemorrhage
- intracerebral hemorrhage (MRI, extravasation of Hgb) post CHI (WT mice subjected to CHI; listed as WT tPA): exacerbated
- injury phenotype (ICH) of knock-out mice after exogenous plasminogen activator [2]: rescued

Molecule: NC[C@H]1CC[C@H](C(=O)O)CC1 [TA, tranexamic acid, reference compound]
- death, vascular occlusive events and frequency of blood transfusions (trauma patients): reduced death, vascular occlusive events and the frequency of blood transfusions
- plasminogen activation by uPA in the absence of fibrin (change in OD per minute) (uPA): dramatically stimulated; also recorded: mimics the effect of fibrin only in the case of uPA
- need for blood transfusion [3]: reduced the need for blood transfusion by a third
